Experiment [1] deals with homologous passive cutaneous anaphylaxis (PCA) reaction. The experiment in a line: Effect on homologous passive cutaneous anaphylaxis (PCA) reaction in rats. The class given is in vivo, rats (Male wistar rats). To be noted: Rattus norvegicus, 0.5 h; 100 mg/kg oral, 1 hour before antigen, rats; Table 3. The protocol: This experimental animal model is caused by immediate type allergic reaction, namely, antigen-antibody reaction. In the following, the method of this pharmacological test will be explained.
Method: Male wistar rats (9 weeks old) were intradermally administered 0.05 ml of anti-serum against trinitrophenylated ascaris (TNP-As) into two sites on the shaved dorsal skin. 48 hours later, 3-glycosyloxybenzopyran derivatives and 4-glycosyloxybenzopyran derivatives (test compounds) suspended in 0.5% sodium carboxymethylcellulose (CMCNa) were given orally at a dose of 100 mg/kg to the animals. 1 hour after administration of Test compounds, the animals were induced anaphylaxis by injection of saline (1 ml) dissolving 5 mg of Evans Blue and 1 mg of TNP-As into the tail vein of the animals. 30 minutes after induction of anaphylaxis, animals were anesthetized by ether and killed by bleeding, and were flayed dorsal skin. The leakage of dye was assessed by measuring the diameter (mean of shortest and longest diameter) of the blue spot on the inside surface of dorsal skin. As vehicle control group, only 0.5% CMCNa solution was administered orally, and as positive control group, Tranilast suspended in 0.5% CMCNa were administered orally at a dose of 100 mg/kg to the animals with the same method as the test compounds groups. Each experimental group consisted of 5 rats. [formula] In equation 1: A: leakage of dye in vehicle control group
B: leakage of dye in test compound group or in positive control group
The anti-allergic activity of the compounds of the present invention were compared with that of analogous compounds which were published in the Patent (EP-A-0598117) by PCA reaction. This pharmacological test was performed according to the method described in Test Example 1.

For experiment [2], the system named is contact dermatitis induced by picryl chloride. Nature of the experiment: Effect on contact dermatitis induced by picryl chloride in mice (delayed type hypersensitization). Particulars: Mus musculus; 100 mg/kg oral, ear thickness 24 hours after challenge; Table 6; read-out: Inhibition (%) against the increase of ear thickness. Format: in vivo. As for the experimental part:
The delayed type hypersensitization is inhibited by steroid, but can not be effected by known anti-allergic agents. In the following, the method of the pharmacological test will be explained.
Method: Mice, shaved their abdominal skin on previous day, were immunized by applying 0.1 ml of acetone containing 7 mg of picryl chloride to the skin of the abdomen. 7 days after immunization, the thickness of the ear was measured with a dial thickness gauge, then mice were challenged by painting 5 μl of 1% picryl chloride olive oil solution to each side skin of left ear. 24 hours after challenge, the thickness of the left ear was measured again and the increase (%) of thickness was calculated according to equation 2. The compounds of the present invention (test compounds) suspended in 0.5% CMCNa were forcibly administered orally at a dose of 100 mg/kg at 1 hour before and 16 hours after challenge. As vehicle control group, only 0.5% CMCNa solution were administered orally, and as positive control group, Prednisolone, steroid hormone, and Tranilast were administered orally at the doses of 10 mg/kg and 100 mg/kg, respectively.
Increase (%)=(A-B)/B×100 (Equation 2)
A: thickness of the ear at 24 hours after challenge
B: thickness of the ear before challenge
Inhibition(%)=(C-D)/C×100 (equation 3)
C: The increase (%) in vehicle control group
D: The increase (%) in test compounds group or positive control group

Experiment [3] concerns airway resistance in experimental asthma model. The experiment in a line: Effect on experimental asthma model in guinea pigs. Format: in vivo, guinea pigs (Male hadley). Particulars: Cavia porcellus; 100 mg/kg oral, OVA challenge, guinea pigs; Table 7. The protocol: The asthma is typical allergic disease and we carried out this pharmacological test by well known experimental asthma model in guinea pigs in order to confirm that the compounds of the present invention suppress the asthma. In the following, the method of the pharmacological test will be explained.
Method: Male hadley guinea pigs were immunized by intraperitoneal injection of saline (1 ml) containing 5 mg of ovalbumine (OVA) three times at interval of one week. 2 weeks after final immunization, the animals were challenged by inhalation of 1% OVA-saline solution for 1 minute and then the airway resistance of the animals were measured for 30 minutes with PULMOS-1 (Medical Interface Project Station Inc.) after the inhalation. The compounds of the present invention (test compounds) suspended in 0.5% CMCNa were given orally at a dose of 100 mg/kg. As positive control group, Disodium Cromoglicate (DSCG), well known anti-allergic agent, in saline were injected at a dose of 20 mg/kg into the vein of the animals. As vehicle control group, only 0.5% CMCNa solution were given orally. The inhibition (%) of the airway resistance in vehicle control group was calculated according to equation 5 and the result was shown in Table 7. Each experimental group consisted of 5 guinea pigs. [formula] In equation 5: A: Maximum airway resistance in vehicle control group
B: Maximum airway resistance in test compounds group or positive control group

From patent US5525595A, “3- or 4-glycosyloxybenzopyran derivative and antiallergic agent containing the derivative as active ingredient” (priority 1993, dated 1996) come the findings set out here.

Consider `COc1ccc2c(O)c(O[C@@H]3O[C@H](CO)[C@H](O)[C@H](O)[C@H]3O)c(=O)oc2c1` [compound 11, 7-methoxy-4-hydroxy-3-(β-D-galactopyranosyloxy)-2H-1-benzopyran-2-one], for which the figures for the inhibition in vivo at 100 mg/kg in experiment [1], in experiment [2] and in experiment [3] were 52.1%, 53.3% and 63.3%, respectively.

With `COc1ccc2c(O)c(O[C@H]3O[C@H](COC(C)=O)[C@@H](OC(C)=O)[C@H](OC(C)=O)[C@@H]3OC(C)=O)c(=O)oc2c1` [compound 8, 7-methoxy-4-hydroxy-3-(tetra-O-acetyl-α-D-mannopyranosyloxy)-2H-1-benzopyran-2-one], the inhibition in vivo at 100 mg/kg in experiment [1] was 45.2%; in experiment [2] it was 45.3%; in experiment [3] it was 46.7%.

On to `O=c1oc2cc(OCc3ccccc3)ccc2c(O)c1O[C@@H]1O[C@H](CO)[C@@H](O)[C@H](O)[C@H]1O` [compound 22], for which the values for the inhibition in vivo at 100 mg/kg in experiment [1], in experiment [2] and in experiment [3] were 53.8%, 53.4% and 59.4%, respectively.

With `CC(C)Oc1ccc2c(O[C@@H]3O[C@H](CO)[C@@H](O)[C@H](O)[C@H]3O)c(O)c(=O)oc2c1` [compound 69], the inhibition in vivo at 100 mg/kg in experiment [1] worked out at 57.2%; in experiment [2], 56.4%; in experiment [3], 68.3%.

Turning to `O=c1oc2cc(O)ccc2c(O[C@@H]2O[C@H](CO)[C@@H](O)[C@H](O)[C@H]2O)c1O` [compound 59, 3,7-dihydroxy-4-(β-D-glucopyranosyloxy)-2H-1-benzopyran-2-one], the inhibition in vivo at 100 mg/kg in experiment [1] was 46.1%; in experiment [2], 45.6%; in experiment [3], 49.1%.

With `CCCCCCOc1ccc2c(O)c(O[C@@H]3O[C@H](CO)[C@@H](O)[C@H](O)[C@H]3O)c(=O)oc2c1` [compound 43], the values for the inhibition in vivo at 100 mg/kg in experiment [1], in experiment [2] and in experiment [3] were 63.2%, 63.4% and 76.3%, respectively.

Regarding `CC(C)Oc1ccc2c(O[C@@H]3O[C@H](CO)[C@H](O)[C@H](O)[C@H]3O)c(O)c(=O)oc2c1` [compound 97], the figures for the inhibition in vivo at 100 mg/kg in experiment [1], in experiment [2] and in experiment [3] were 55.7%, 58.7% and 63.2%, respectively.

For `CCCCCCOc1ccc2c(O)c(O[C@H]3O[C@H](CO)[C@@H](O)[C@H](O)[C@@H]3O)c(=O)oc2c1` [compound 44], the figures for the inhibition in vivo at 100 mg/kg in experiment [1], in experiment [2] and in experiment [3] were 53.5%, 58.2% and 71.2%, respectively.

With `CC(C)Oc1ccc2c(O[C@H]3O[C@H](CO)[C@@H](O)[C@H](O)[C@@H]3O)c(O)c(=O)oc2c1` [compound 83], the inhibition in vivo at 100 mg/kg in experiment [1] worked out at 49.3%; in experiment [2] it was 49.1%; in experiment [3] it was 46.9%.

Turning to `CCCCCCCCCCCCOc1ccc2c(O[C@@H]3O[C@H](CO)[C@H](O)[C@H](O)[C@H]3O)c(OC(C)=O)c(=O)oc2c1` [compound 103], the inhibition in vivo at 100 mg/kg in experiment [1] is 51.1%; in experiment [2] it was 48.3%; in experiment [3] it was 65.3%.

Turning to `CC(=O)Oc1ccc2c(O[C@@H]3O[C@H](CO)[C@@H](O)[C@H](O)[C@H]3O)c(O)c(=O)oc2c1` [compound 116], the values for the inhibition in vivo at 100 mg/kg in experiment [1], in experiment [2] and in experiment [3] were 48%, 45.1% and 55.3%, respectively.

On to `CCCCOc1ccc2c(O)c(O[C@@H]3O[C@H](CO)[C@@H](O)[C@H](O)[C@H]3O)c(=O)oc2c1` [compound 15], for which the inhibition in vivo at 100 mg/kg came to 60.4% in experiment [1], 58.5% in experiment [2] and 73.6% in experiment [3].

For `CCCCCCCCCCOc1ccc2c(O[C@@H]3O[C@H](CO)[C@@H](O)[C@H](O)[C@H]3O)c(O)c(=O)oc2c1` [compound 67], the values for the inhibition in vivo at 100 mg/kg in experiment [1], in experiment [2] and in experiment [3] were 60.4%, 63.8% and 70.6%, respectively.

For `O=C(Oc1ccc2c(O)c(O[C@@H]3O[C@H](CO)[C@@H](O)[C@H](O)[C@H]3O)c(=O)oc2c1)c1ccccc1` [compound 21], the inhibition in vivo at 100 mg/kg was found to be 54.4% in experiment [1], 53.6% in experiment [2] and 60.7% in experiment [3].

As for `O=c1oc2cc(O)ccc2c(O)c1O[C@H]1O[C@H](CO)[C@@H](O)[C@H](O)[C@@H]1O` [compound 23], the inhibition in vivo at 100 mg/kg stood at 47.8% in experiment [1], 45% in experiment [2] and 46.6% in experiment [3].

On to `CCCCCCCCCCCCOc1ccc2c(O[C@@H]3O[C@H](CO)[C@H](O)[C@H](O)[C@H]3O)c(O)c(=O)oc2c1` [compound 96], for which the inhibition in vivo at 100 mg/kg in experiment [1] amounted to 56.6%; in experiment [2] it was 57.8%; in experiment [3] it was 73.1%.

For `CC(C)=CCC/C(C)=C/COc1ccc2c(O)c(O[C@@H]3O[C@H](CO)[C@@H](O)[C@H](O)[C@H]3O)c(=O)oc2c1` [compound 20], the inhibition in vivo at 100 mg/kg in experiment [1] is 57.2%; in experiment [2], 56.2%; in experiment [3] it was 72.4%.

Take `COc1ccc2c(O)c(O[C@H]3O[C@H](CO)[C@@H](O)[C@H](O)[C@@H]3O)c(=O)oc2c1` [compound 10, 7-methoxy-4-hydroxy-3-(α-D-mannopyranosyloxy)-2H-1-benzopyran-2-one]: the inhibition in vivo at 100 mg/kg in experiment [1] came to 50.3%; in experiment [2], 47.5%; in experiment [3] it was 49%.

With `CCC=CCCOc1ccc2c(O[C@@H]3O[C@H](CO)[C@H](O)[C@H](O)[C@H]3O)c(O)c(=O)oc2c1` [compound 98], the inhibition in vivo at 100 mg/kg in experiment [1] is 60.2%; in experiment [2] it was 61.2%; in experiment [3], 72.8%.

`CCC=CCCOc1ccc2c(O[C@@H]3O[C@H](CO)[C@@H](O)[C@H](O)[C@H]3O)c(O)c(=O)oc2c1` [compound 70]: the figures for the inhibition in vivo at 100 mg/kg in experiment [1], in experiment [2] and in experiment [3] were 58.5%, 57.6% and 67.7%, respectively.

In the case of `COc1ccc2c(OCc3ccccc3)c(O[C@@H]3O[C@H](COC(C)=O)[C@@H](OC(C)=O)[C@H](OC(C)=O)[C@H]3OC(C)=O)c(=O)oc2c1` [compound 3, 7-methoxy-4-benzyloxy-3-(tetra-O-acetyl-β-D-glucopyranosyloxy)-2H-1-benzopyran-2-one], the inhibition in vivo at 100 mg/kg in experiment [1] is 43.5%; in experiment [2], 40.5%; in experiment [3], 40%.

As to `O=c1oc2cc(O)ccc2c(O[C@@H]2O[C@H](CO)[C@H](O)[C@H](O)[C@H]2O)c1O` [compound 91], the inhibition in vivo at 100 mg/kg in experiment [1] came to 40.4%; in experiment [2], 45.5%; in experiment [3], 45.1%.

For `CCCCCCOc1ccc2c(O)c(O[C@@H]3O[C@H](CO)[C@H](O)[C@H](O)[C@H]3O)c(=O)oc2c1` [compound 41], the inhibition in vivo at 100 mg/kg amounted to 60.8% in experiment [1], 65.7% in experiment [2] and 77.7% in experiment [3].
